Like-named read-outs stand apart in the source and are kept apart here.
Assays:
[1] = tested on: HIV; assay: microbe, parasite or virus in culture; type: cell-based; settings: for IC50: read-out: IC50
[2] = Toxicokinetics and 7-day toxicity after oral administration of CMX157 to rats; type: in vivo; settings: rat plasma
[3] = tested on: HIV-1IIIB; assay: Association of compound with concentrated virus (LC/MS/MS of viral pellets); type: binding; settings: 500 nM, 2 hours
Procedure: To examine the potential of CMX157 to associate directly with virus, concentrated HIV-1IIIB (approximately 9.7×10^10 virus particles) is treated with 500 nM CMX157 or TFV for 2 hours. Following incubation, virus is pelleted to remove unbound compound, lysed with 70% ice cold methanol and centrifuged. Supernatants are analyzed in triplicate using LC/MS/MS (liquid chromatography/mass spectrometry). TFV, TFV mono- and diphosphate are separated by gradient, reverse phase, ion-paring chromatography and detected by positive ion electrospray. The levels of CMX157 associated with the viral pellets (≈37,000 molecules/virion) are much higher than the levels of TFV associated with viral pellets (≈100 molecules/virion).

[4] = tested on: HIV-1IIIB; assay: TCID50 determination of drug-treated HIV-1IIIB; type: cell-based; parameters: TCID50, XTT Endpoint / TCID50, RT Endpoint / TCID50, P24 Endpoint: unit not given here
[5] = PANEL 40, M41L + L210W + T215Y + M184V
[6] = PANEL 41, M41L + L210W + T215Y + M184V
[7] = PANEL 44, D67N + K70R + T215F + K219E + M184V
[8] = virus treated 2 hours with 125 nM drug
[9] = virus treated 2 hours with 250 nM drug
[10] = virus treated 2 hours with 500 nM drug
[11] = virus treated 2 hours with 1000 nM drug

Q: Which results are given for C[C@H](Cn1cnc2c(N)ncnc21)OCP(=O)(O)O [TFV, (R)-9-(2-phosphonylmethoxypropyl)adenine]?
A: IC50 Fold Change ([1]; PANEL 1, WT): 0.79; IC50 ([1]; PANEL 1, WT): 613 nM; IC50 Fold Change ([1]; PANEL 2, WT): 0.85; IC50 ([1]; PANEL 2, WT): 652 nM; IC50 Fold Change ([1]; PANEL 3, 6 TAMs, no 184): 3.47; IC50 ([1]; PANEL 3, 6 TAMs, no 184): 2670 nM; IC50 Fold Change ([1]; PANEL 6, 6 TAMs + 184): 2.16; IC50 ([1]; PANEL 6, 6 TAMs + 184): 1670 nM; IC50 Fold Change ([1]; PANEL 7, 184V): 0.69; IC50 ([1]; PANEL 7, 184V): 534 nM; IC50 Fold Change ([1]; PANEL 9, 69ins, no 184): 22.00; IC50 ([1]; PANEL 9, 69ins, no 184): 17000 nM; IC50 Fold Change ([1]; PANEL 12, 69ins + 184): 4.72; IC50 ([1]; PANEL 12, 69ins + 184): 3640 nM; IC50 Fold Change ([1]; PANEL 14, 65R, no 184): 1.71; IC50 ([1]; PANEL 14, 65R, no 184): 1320 nM; IC50 Fold Change ([1]; PANEL 15, 65R + 184V): 1.22; IC50 ([1]; PANEL 15, 65R + 184V): 940 nM; IC50 Fold Change ([1]; PANEL 17, L74V): 0.62; IC50 ([1]; PANEL 17, L74V): 476 nM; IC50 Fold Change ([1]; PANEL 19, L74V + M184V): 0.29; IC50 ([1]; PANEL 19, L74V + M184V): 227 nM; IC50 Fold Change ([1]; PANEL 26, 151M, no 184): 2.26; IC50 ([1]; PANEL 26, 151M, no 184): 1740 nM; IC50 Fold Change ([1]; PANEL 28, 151M + 184): 1.43; IC50 ([1]; PANEL 28, 151M + 184): 1100 nM; IC50 Fold Change ([1]; PANEL 29, L74V − SDM): 0.69; IC50 ([1]; PANEL 29, L74V − SDM): 535 nM; IC50 Fold Change ([1]; PANEL 30, M184V − SDM): 0.54; IC50 ([1]; PANEL 30, M184V − SDM): 413 nM; IC50 Fold Change ([1]; PANEL 31, K65R − SDM): 2.01; IC50 ([1]; PANEL 31, K65R − SDM): 1550 nM; IC50 Fold Change ([1]; PANEL 33, T215Y): 2.39; IC50 ([1]; PANEL 33, T215Y): 1840 nM; IC50 Fold Change ([1]; PANEL 34, T215Y + M184V): 0.81; IC50 ([1]; PANEL 34, T215Y + M184V): 624 nM; IC50 Fold Change ([1]; PANEL 35, M41L + T215Y): 1.84; IC50 ([1]; PANEL 35, M41L + T215Y): 1420 nM; IC50 Fold Change ([1]; PANEL 37, M41L + T215Y + M184V): 1.34; IC50 ([1]; PANEL 37, M41L + T215Y + M184V): 1030 nM; IC50 Fold Change ([1]; PANEL 38, M41L + L210W + T215Y): 2.80; IC50 ([1]; PANEL 38, M41L + L210W + T215Y): 2160 nM; IC50 Fold Change ([1]; PANEL 39, M41L + L210W + T215Y): 3.01; IC50 ([1]; PANEL 39, M41L + L210W + T215Y): 2320 nM; IC50 Fold Change [1, 5]: 0.97; IC50 [1, 5]: 751 nM; IC50 Fold Change [1, 6]: 1.02; IC50 [1, 6]: 789 nM; IC50 Fold Change ([1]; PANEL 42, D67N + K70R): 2.56; IC50 ([1]; PANEL 42, D67N + K70R): 1970 nM; IC50 Fold Change [1, 7]: 0.91; IC50 [1, 7]: 703 nM; IC50 Fold Change ([1]; PANEL 45, L210W + T215Y): 1.34; IC50 ([1]; PANEL 45, L210W + T215Y): 1030 nM; IC50 Fold Change ([1]; PANEL 46, D67N + K70E): 0.96; IC50 ([1]; PANEL 46, D67N + K70E): 738 nM; IC50 Fold Change ([1]; PANEL 47, D67N + K70E + M184V): 0.64; IC50 ([1]; PANEL 47, D67N + K70E + M184V): 495 nM; IC50 Fold Change ([1]; PANEL 48, K70E + M184V): 0.61; IC50 ([1]; PANEL 48, K70E + M184V): 472 nM; AUC0-24 ([2]; oral CMX157 10 mg/kg, day 1): 510.8 ng·h/mL; AUC0-∞ ([2]; oral CMX157 10 mg/kg, day 1): 775.2 ng·h/mL; Cmax ([2]; oral CMX157 10 mg/kg, day 1): 55.35 ng/mL; Tmax ([2]; oral CMX157 10 mg/kg, day 1): 2.0 h; t1/2elim ([2]; oral CMX157 10 mg/kg, day 1): 10.9 h; AUC0-24 ([2]; oral CMX157 10 mg/kg, day 7): 964.7 ng·h/mL; AUC0-∞ ([2]; oral CMX157 10 mg/kg, day 7): 1,226.9 ng · h/ml; Cmax ([2]; oral CMX157 10 mg/kg, day 7): 49.55 ng/mL; Tmax ([2]; oral CMX157 10 mg/kg, day 7): 2.4 h; t1/2elim ([2]; oral CMX157 10 mg/kg, day 7): 9.2 h; AUC0-24 ([2]; oral CMX157 30 mg/kg, day 1): 1,456.1 ng · h/ml; AUC0-∞ ([2]; oral CMX157 30 mg/kg, day 1): 1,808.1 ng · h/ml; Cmax ([2]; oral CMX157 30 mg/kg, day 1): 109.10 ng/mL; Tmax ([2]; oral CMX157 30 mg/kg, day 1): 4.0 h; t1/2elim ([2]; oral CMX157 30 mg/kg, day 1): 10.1 h; AUC0-24 ([2]; oral CMX157 30 mg/kg, day 7): 2,363.4 ng · h/ml; AUC0-∞ ([2]; oral CMX157 30 mg/kg, day 7): 2,790.5 ng · h/ml; Cmax ([2]; oral CMX157 30 mg/kg, day 7): 149.25 ng/mL; Tmax ([2]; oral CMX157 30 mg/kg, day 7): 4.0 h; t1/2elim ([2]; oral CMX157 30 mg/kg, day 7): 7.6 h; AUC0-24 ([2]; oral CMX157 100 mg/kg, day 1): 3,039.3 ng · h/ml; AUC0-∞ ([2]; oral CMX157 100 mg/kg, day 1): 3,639.5 ng · h/ml; Cmax ([2]; oral CMX157 100 mg/kg, day 1): 181.40 ng/mL; Tmax ([2]; oral CMX157 100 mg/kg, day 1): 12.0 h; t1/2elim ([2]; oral CMX157 100 mg/kg, day 1): 7.2 h; AUC0-24 ([2]; oral CMX157 100 mg/kg, day 7): 5,715.4 ng · h/ml; AUC0-∞ ([2]; oral CMX157 100 mg/kg, day 7): 7,373.4 ng · h/ml; Cmax ([2]; oral CMX157 100 mg/kg, day 7): 322.00 ng/mL; Tmax ([2]; oral CMX157 100 mg/kg, day 7): 12.0 h; t1/2elim ([2]; oral CMX157 100 mg/kg, day 7): 9.0 h; levels associated with the viral pellets [3]: ≈ 100 molecules/virion; effect on viral replication ([4]; up to 1000 nM, 2 hours): no discernible effect; Fold Decrease From VC, P24 Endpoint [4, 8]: (0) Fold; Fold Decrease From VC, RT Endpoint [4, 8]: (1.1) Fold; Fold Decrease From VC, XTT Endpoint [4, 8]: (1.1) Fold; TCID50, P24 Endpoint [4, 8]: 43056; TCID50, RT Endpoint [4, 8]: 72449; TCID50, XTT Endpoint [4, 8]: 4027; Fold Decrease From VC, P24 Endpoint [4, 9]: (0) Fold; Fold Decrease From VC, RT Endpoint [4, 9]: (1.1) Fold; Fold Decrease From VC, XTT Endpoint [4, 9]: (0) Fold; TCID50, P24 Endpoint [4, 9]: 36227; TCID50, RT Endpoint [4, 9]: 72449; TCID50, XTT Endpoint [4, 9]: 4529; Fold Decrease From VC, P24 Endpoint [4, 10]: (0) Fold; Fold Decrease From VC, RT Endpoint [4, 10]: (0) Fold; Fold Decrease From VC, XTT Endpoint [4, 10]: (0) Fold; TCID50, P24 Endpoint [4, 10]: 37328; TCID50, RT Endpoint [4, 10]: 81289; TCID50, XTT Endpoint [4, 10]: 4529; Fold Decrease From VC, P24 Endpoint [4, 11]: (0) Fold; Fold Decrease From VC, RT Endpoint [4, 11]: (1.3) Fold; Fold Decrease From VC, XTT Endpoint [4, 11]: (0) Fold; TCID50, P24 Endpoint [4, 11]: 36227; TCID50, RT Endpoint [4, 11]: 64570; TCID50, XTT Endpoint [4, 11]: 4529

From patent publication US8993542B2, “Methods of treating viral infections” (priority 2008, dated 2015)
